Measured values taken from patent US20230168259A1, “METHOD FOR PREDICTING THE COURSE OF A VIRAL DISEASE” (Leibniz-Institut für Virologie, priority 2020, published 2023).

Key:
[1] = system: MIP-1β; parameters: species or system Syrian golden hamster; settings: hamster, in vivo, ip
[2] = system: SARS-CoV-2; experiment: Virus titer (plaque assay on VeroE6 cells) in organs of SARS-CoV-2 infected hamsters treated with letrozole or placebo; format: in vivo, Syrian golden hamster; settings: 0.18 mg kg-1 i.p. daily, 3 d p.i., compared to placebo
[3] = system: MIP-1α; parameters: species or system Syrian golden hamster; settings: hamster, in vivo, ip
[4] = SARS-CoV-2-infected female hamsters
[5] = SARS-CoV-2-infected male hamsters

N#Cc1ccc(C(c2ccc(C#N)cc2)n2cncn2)cc1 [letrozole]
lower: expression level of MIP-1β in lungs [1] | expression level of MIP-1α in lungs [3]
lower virus titers: virus titer in brain [2, 4] | virus titer in lungs [2, 4] | virus titer in plasma [2, 4] | virus titer in brain [2, 5] | virus titer in lungs [2, 5] | virus titer in testis [2, 5]
